According to US8609591B2, “Herbicidal composition” (Ishihara Sangyo Kaisha, Ltd., priority 2010, dated 2013):
Like-named read-outs stand apart in the source and are kept apart here.

Legend:
[1] = test system: velvetleaf (Abutilon theophrasti MEDIC.); assay: Foliar treatment pot test, growth inhibition rate visually observed; format: in vivo; settings: for inhibition at 18.75 g/ha / inhibition at 37.5 g/ha: 8 DAT
Protocol: (§1) Upland field soil was put into a 1/1,000,000 hectare pot, and seeds of various plants (barnyardgrass (Echinochloa crus-galli L.) and velvetleaf (Abutilon theophrasti MEDIC.) were sown. When the respective plants reached predetermined leaf stage, herbicidal compositions in predetermined amounts were diluted with water in an amount corresponding to 300 L/ha and applied for foliar treatment by a small sprayer.
(§2) On the 8 to 14 days after treatment (DAT), the state of growth of the respective plants was visually observed to determine the growth inhibition rate (measured value) in accordance with the following evaluation standard. Further, in accordance with the Colby's formula, the growth inhibition rate (calculated value) was calculated. In Tables, with respect to the benzoylpyrazole compound represented by the formula (I), Compound Nos. in Table 1 are described, and with respect to other compounds, common names are described. […]

[2] = test system: barnyardgrass (Echinochloa crus-galli L.); assay: as above; format: in vivo; settings: for inhibition at 18.75 g/ha / inhibition at 37.5 g/ha: 8 DAT
Protocol: as §1, §2

[3] = 192 h, 1.8 to 2.4 leaf stage, foliar treatment, Table 2-2, read-out: Growth inhibition rate (%) of velvetleaf, Measured value
[4] = 192 h, 1.8 to 2.4 leaf stage, foliar treatment, Table 2-6, read-out: Growth inhibition rate (%) of velvetleaf, Measured value
[5] = 192 h, 2.6 to 3.2 leaf stage, foliar treatment, Table 2-4, read-out: Growth inhibition rate (%) of velvetleaf, Measured value
[6] = 192 h, 2.6 to 3.2 leaf stage, foliar treatment, Table 2-11, read-out: Growth inhibition rate (%) of velvetleaf, Measured value
[7] = 192 h, 2.6 to 3.2 leaf stage, foliar treatment, Table 2-13, read-out: Growth inhibition rate (%) of velvetleaf, Measured value
[8] = 192 h, 2.8 to 3.4 leaf stage, foliar treatment, Table 2-5, read-out: Growth inhibition rate (%) of barnyardgrass, Measured value
[9] = 192 h, 2.8 to 3.4 leaf stage, foliar treatment, read-out: Growth inhibition rate (%) of barnyardgrass, Measured value
[10] = 192 h, 3.6 to 4.5 leaf stage, foliar treatment, Table 2-3, read-out: Growth inhibition rate (%) of barnyardgrass, Measured value
[11] = 192 h, 3.6 to 4.5 leaf stage, foliar treatment, Table 2-10, read-out: Growth inhibition rate (%) of barnyardgrass, Measured value
[12] = 192 h, 3.6 to 4.5 leaf stage, foliar treatment, Table 2-12, read-out: Growth inhibition rate (%) of barnyardgrass, Measured value
[13] = 192 h, read-out: Growth inhibition rate (%) of velvetleaf, Measured value
[14] = 192 h, read-out: Growth inhibition rate (%) of barnyardgrass, Measured value

## CC(C)c1nn(C(=O)NC(C)(C)C)c(=O)n1N [Amicarbazone]
[1]; [3]
  inhibition at 18.75 g/ha: 40%
  inhibition at 37.5 g/ha: 45%
[1]; [4]
  inhibition at 18.75 g/ha: 40%
  inhibition at 37.5 g/ha: 45%
[1]; [5]
  inhibition at 18.75 g/ha: 50%
  inhibition at 37.5 g/ha: 60%
[1]; [6]
  inhibition at 18.75 g/ha: 50%
  inhibition at 37.5 g/ha: 60%
[1]; [7]
  inhibition at 18.75 g/ha: 50%
  inhibition at 37.5 g/ha: 60%
[1]; 336 h, 30 g/ha, 4 to 4.5 leaf stage, 14 DAT, foliar treatment, read-out: Growth inhibition rate (%) of velvetleaf, Measured value
  inhibition at 30 g/ha: 35%
[1]; 336 h, 50 g/ha, 4 to 4.5 leaf stage, 14 DAT, foliar treatment, read-out: Growth inhibition rate (%) of velvetleaf, Measured value
  inhibition at 50 g/ha: 55%
[1]; 336 h, 75 g/ha, 4 to 4.5 leaf stage, 14 DAT, foliar treatment, read-out: Growth inhibition rate (%) of velvetleaf, Measured value
  inhibition at 75 g/ha: 55%
[2]; [8]
  inhibition at 18.75 g/ha: 30%
  inhibition at 37.5 g/ha: 50%
[2]; [9]
  inhibition at 18.75 g/ha: 30%
  inhibition at 37.5 g/ha: 50%
[2]; [10]
  inhibition at 18.75 g/ha: 20%
  inhibition at 37.5 g/ha: 25%
[2]; [11]
  inhibition at 18.75 g/ha: 20%
  inhibition at 37.5 g/ha: 25%
[2]; [12]
  inhibition at 18.75 g/ha: 20%
  inhibition at 37.5 g/ha: 25%
[2]; 264 h, 75 g/ha, 3.2 to 4.1 leaf stage, 11 DAT, foliar treatment, read-out: Growth inhibition rate (%) of barnyardgrass, Measured value
  inhibition at 75 g/ha: 40%
[2]; 264 h, 150 g/ha, 3.2 to 4.1 leaf stage, 11 DAT, foliar treatment, read-out: Growth inhibition rate (%) of barnyardgrass, Measured value
  inhibition at 150 g/ha: 73%
[2]; 336 h, 30 g/ha, 4.2 to 5.3 leaf stage, 14 DAT, foliar treatment, read-out: Growth inhibition rate (%) of barnyardgrass, Measured value
  inhibition at 30 g/ha: 0%
[2]; 336 h, 50 g/ha, 4.2 to 5.3 leaf stage, 14 DAT, foliar treatment, read-out: Growth inhibition rate (%) of barnyardgrass, Measured value
  inhibition at 50 g/ha: 0%
[2]; 336 h, 75 g/ha, 4.2 to 5.3 leaf stage, 14 DAT, foliar treatment, read-out: Growth inhibition rate (%) of barnyardgrass, Measured value
  inhibition at 75 g/ha: 15%

## CS(=O)(=O)c1ccc(C(=O)C2C(=O)CCCC2=O)c(Cl)c1 [Sulcotrione]
[1]; [13]
  inhibition at 75 g/ha: 30%
  inhibition at 150 g/ha: 30%
[2]; [14]
  inhibition at 75 g/ha: 40%
  inhibition at 150 g/ha: 45%

## Cc1c(C(=O)c2cnn(C)c2O)ccc(S(C)(=O)=O)c1C1=NOCC1 [Topramezone]
[1]; [13]
  inhibition at 7 g/ha: 30%
  inhibition at 15 g/ha: 30%
[2]; [14]
  inhibition at 7 g/ha: 40%
  inhibition at 15 g/ha: 40%
